Data: the SangsterLogP compilation

assay: method code SF-AS, from PMID: 6637502; details: pH 5.0

Row | SMILES | logD
1 | CC1CCc2nc3c(c(=O)n2C1)CCCC3 (configuration not stated) | 1.7
2 | Cc1cccn2c(=O)c3c(nc12)CCCC3 | 2.44
3 | Cc1cnc2n(c1=O)C(C)CCC2 (configuration not stated) | 0.82
4 | CC1CCCc2nc3c(c(=O)n21)CCCC3 (configuration not stated) | 1.67
5 | O=c1c2c(nc3ccccn13)CCCC2 | 1.63
6 | O=c1c2c(nc3n1CCC3)CCC2 | 0.22
7 | CC1CCCn2c1nc1c(c2=O)CCCC1 (configuration not stated) | 1.76
8 | Cc1nc2n(c(=O)c1C)CCCC2 | 0.6
9 | O=c1c2c(nc3n1CCCCC3)CCCCC2 | 2.18
10 | Cc1ccn2c(=O)c3c(nc2c1)CCCC3 | 1.86

Other lines, results leading:

Row | logD | SMILES
11 | 1.98 | O=c1c2ccccc2nc2n1CCCCC2
12 | 0.61 | Cc1ccc2nccc(=O)n2c1
13 | 0.4 | Cc1cnc2n(c1=O)CCCC2
14 | 1.77 | Cc1cccc2nc3c(c(=O)n12)CCC3
15 | 1.91 | Cc1cccc2nc3c(c(=O)n12)CCCC3
16 | 0.79 | Cc1cccn2c(=O)ccnc12
17 | 0.56 | Cc1ccn2c(=O)ccnc2c1
18 | 1.25 | O=c1c2c(nc3n1CCCCC3)CCC2
19 | 1.65 | Cc1ccn2c(=O)c3c(nc2c1)CCC3
20 | 1.61 | Cc1ccc2nc3c(c(=O)n2c1)CCC3
21 | 1.67 | CC1CCn2c(nc3c(c2=O)CCCC3)C1 (configuration not stated)
22 | 2.07 | Cc1ccc2nc3c(c(=O)n2c1)CCCC3
